The source of these data is patent publication US11279687B2, “Compounds and compositions for the inhibition of NAMPT” (Valo Health, Inc., priority 2010, dated 2022).

The test system of test [1] is A2780 cells. The test is described as follows: In-vitro cell proliferation assay (SRB), A2780 cells.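 Further: viable cell number read as SRB absorbance, background from media-only wells subtracted, IC50 interpolated from percent inhibition at two bracketing compound concentrations.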 Format: cell-based. As to conditions: A2780 cells, 72 hours, SRB, read-out: A2780 IC50.
Test [2] concerns the target NAMPT (Homo sapiens (Human), UniProt P43490). The test is described as follows: NAMPT biochemical inhibition assay (NMN quantified by mass spectrometry). As to conditions: NAMPT biochemical inhibition; read-out: Biochem IC50.

SMILES strings stand for the structures. Read-outs that look alike come from different tables or passages of the source. Where only a bound is given, the exact number is not on record here.

NAMPT, sequence (P43490 whole entry): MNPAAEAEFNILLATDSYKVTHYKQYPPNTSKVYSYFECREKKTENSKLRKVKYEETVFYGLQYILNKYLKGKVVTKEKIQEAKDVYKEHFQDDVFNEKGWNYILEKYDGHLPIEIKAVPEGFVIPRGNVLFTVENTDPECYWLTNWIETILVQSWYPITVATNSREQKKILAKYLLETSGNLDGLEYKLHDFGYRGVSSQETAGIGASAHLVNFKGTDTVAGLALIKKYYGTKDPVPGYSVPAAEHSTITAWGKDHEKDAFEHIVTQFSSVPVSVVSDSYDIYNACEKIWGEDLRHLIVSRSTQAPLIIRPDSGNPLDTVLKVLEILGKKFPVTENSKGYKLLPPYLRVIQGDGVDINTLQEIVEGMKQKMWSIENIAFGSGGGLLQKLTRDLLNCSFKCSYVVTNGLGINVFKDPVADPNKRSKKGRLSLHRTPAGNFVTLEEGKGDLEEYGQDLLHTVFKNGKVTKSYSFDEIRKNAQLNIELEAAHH

Turning to `O=C(NCc1cncc(Cl)c1)Nc1ccc(S(=O)(=O)N2CCCCC2)cc1` [3-[(5-chloropyridin-3-yl)methyl]-1-[4-(piperidine-1-sulfonyl)phenyl]urea], the IC50 in test [1] (Homo sapiens, A2780, 72 h) is 18000 nM; in test [2], 48 nM.

On to `CCN(CC)C(=O)CN1CCN(S(=O)(=O)c2ccc(NC(=O)NCc3cccnc3)cc2)CC1` [N,N-diethyl-2-{4-[(4-{[(pyridin-3-ylmethyl)carbamoyl]amino}benzene)sulfonyl]piperazin-1-yl}acetamide], for which the IC50 amounted to 45 nM in test [1] (Homo sapiens, A2780, 72 h) and 5 nM in test [2].

Turning to `Nc1ccc(CNC(=O)Nc2ccc(S(=O)(=O)N3CCCCC3)cc2)cn1` [3-[(6-aminopyridin-3-yl)methyl]-1-[4-(piperidine-1-sulfonyl)phenyl]urea], the IC50 in test [1] (Homo sapiens, A2780, 72 h) came out at 71.4 nM; in test [2], 8.5 nM.

Take `CS(=O)(=O)N(c1cccc(N)c1)S(=O)(=O)c1ccc(NC(=O)NCc2cccnc2)cc1` [3-{4-[(3-aminophenyl)(methanesulfonyl)sulfamoyl]phenyl}-1-(pyridin-3-ylmethyl)urea]: the IC50 in test [1] (Homo sapiens, A2780, 72 h) is 110 nM; in test [2], 3 nM.

Turning to `CCN(Cc1ccccc1)S(=O)(=O)c1ccc(NC(=O)NCc2cccnc2)cc1` [3-{4-[benzyl(ethyl)sulfamoyl]phenyl}-1-(pyridin-3-ylmethyl)urea], the IC50 in test [1] (Homo sapiens, A2780, 72 h) turned out to be 7 nM; in test [2] it was 0.9 nM.

`CN(C)C(=O)c1cc(F)cc(S(=O)(=O)c2ccc(NC(=O)NCc3cccnc3)cc2)c1` [3-fluoro-N,N-dimethyl-5-[(4-{[(pyridin-3-ylmethyl)carbamoyl]amino}benzene)sulfonyl]benzamide]: the IC50 in test [1] (Homo sapiens, A2780, 72 h) was found to be 13.3 nM; in test [2], 1.5 nM.

Consider `COc1ccccc1S(=O)(=O)c1ccc(NC(=O)NCc2cccnc2)cc1` [3-{4-[(2-methoxybenzene)sulfonyl]phenyl}-1-(pyridin-3-ylmethyl)urea], for which the IC50 in test [1] (Homo sapiens, A2780, 72 h) was determined as 10 nM; in test [2], 2 nM.

In the case of `CCNC(=O)c1ccc(S(=O)(=O)c2ccc(NC(=O)NCc3cccnc3)cc2)cc1` [N-ethyl-4-[(4-{[(pyridin-3-ylmethyl)carbamoyl]amino[benzene)sulfonyl]benzamide], the half-inhibitory concentration (IC50) was found to be 40.2 nM in test [1] (Homo sapiens, A2780, 72 h) and 1.3 nM in test [2].

As to `O=C(NCc1cccnc1)Nc1ccc(S(=O)(=O)N2CCN(c3ncc(C(F)(F)F)cc3Cl)CC2)cc1` [3-(4-{4-[3-chloro-5-(trifluoromethyl)pyridin-2-yl]piperazine-1-sulfonyl}phenyl)-1-(pyridin-3-ylmethyl)urea], the IC50 in test [1] (Homo sapiens, A2780, 72 h) was determined as 128 nM; in test [2], 5 nM.

For `COc1cc(F)ccc1S(=O)(=O)c1ccc(NC(=O)NCc2cccnc2)cc1` [3-{4-[(4-fluoro-2-methoxybenzene)sulfonyl]phenyl}-1-(pyridin-3-ylmethyl)urea], the IC50 in test [1] (Homo sapiens, A2780, 72 h) came out at 28.2 nM; in test [2], 2 nM.

As for `Cc1ccc(F)c(S(=O)(=O)c2ccc(NC(=O)NCc3cccnc3)cc2)c1` [3-{4-[(2-fluoro-5-methylbenzene)sulfonyl]phenyl}-1-(pyridin-3-ylmethyl)urea], the 50% inhibitory concentration (IC50) in test [1] (Homo sapiens, A2780, 72 h) is over 1000 nM; in test [2] it was 12 nM.

Turning to `O=C(NCc1cnccn1)Nc1ccc(S(=O)(=O)N2CCCCC2)cc1` [3-[4-(piperidine-1-sulfonyl)phenyl]-1-(pyrazin-2-ylmethyl)urea], the IC50 is over 30000 nM in test [1] (Homo sapiens, A2780, 72 h) and 273 nM in test [2].

With `O=C(NCc1cccnc1)Nc1ccc(S(=O)(=O)c2ccc(Cl)c(C(F)(F)F)c2)cc1` [3-(4-{[4-chloro-3-(trifluoromethyl)benzene]sulfonyl}phenyl)-1-(pyridin-3-ylmethyl)urea], the IC50 in test [1] (Homo sapiens, A2780, 72 h) is 167 nM; in test [2] it was 5 nM.

As to `CC(C)C(=O)NC1CCN(S(=O)(=O)c2ccc(NC(=O)NCc3cccnc3)cc2)CC1` [2-methyl-N-{1-[(4-{[(pyridin-3-ylmethyl)carbamoyl]amino}benzene)sulfonyl]piperidin-4-yl}propanamide], the figures for the IC50 in test [1] and in test [2] were 123 nM and 5 nM, respectively.

Take `Cc1ccc(NS(=O)(=O)c2ccc(NC(=O)NCc3cccnc3)cc2)cc1Cl` [3-{4-[(3-chloro-4-methylphenyl)sulfamoyl]phenyl}-1-(pyridin-3-ylmethyl)urea]: the IC50 was 26 nM in test [1] (Homo sapiens, A2780, 72 h) and 1.4 nM in test [2].

As to `CN(C(=O)CN1CCN(S(=O)(=O)c2ccc(NC(=O)NCc3cccnc3)cc2)CC1)c1ccccc1` [N-methyl-N-phenyl-2-{4-[(4-{[(pyridin-3-ylmethyl)carbamoyl]amino}benzene)sulfonyl]piperazin-1-yl}acetamide], the 50% inhibitory concentration (IC50) came to 30 nM in test [1] (Homo sapiens, A2780, 72 h) and 8 nM in test [2].

`NC(=O)c1cccc(S(=O)(=O)c2ccc(NC(=O)NCc3cccnc3)cc2)c1` [3-[(4-{[(pyridin-3-ylmethyl)carbamoyl]amino[benzene)sulfonyl]benzamide]: the IC50 was 1000 to 10000 nM in test [1] (Homo sapiens, A2780, 72 h) and 8 nM in test [2].

`COc1ccc(S(=O)(=O)c2ccc(NC(=O)NCc3cccnc3)cc2)cc1F` [3-{4-[(3-fluoro-4-methoxybenzene)sulfonyl]phenyl}-1-(pyridin-3-ylmethyl)urea]: the IC50 in test [1] (Homo sapiens, A2780, 72 h) was determined as 173 nM; in test [2], 2 nM.

As to `CCCOc1ccc(S(=O)(=O)c2ccc(NC(=O)NCc3cccnc3)cc2)cc1F` [3-{4-[(3-fluoro-4-propoxybenzene)sulfonyl]phenyl}-1-(pyridin-3-ylmethyl)urea], the IC50 was found to be 58.5 nM in test [1] (Homo sapiens, A2780, 72 h) and 1.3 nM in test [2].

Regarding `O=C(NCc1cccnc1)Nc1ccc(S(=O)(=O)c2cncc(Cl)c2)cc1` [3-[4-(5-chloropyridine-3-sulfonyl)phenyl]-1-(pyridin-3-ylmethyl)urea], the IC50 in test [1] (Homo sapiens, A2780, 72 h) is 98.2 nM; in test [2], 2.6 nM.

Consider `O=C(NCc1cccnc1)Nc1ccc(S(=O)(=O)N2CC(F)(F)C2)cc1` [3-[4-(3,3-difluoroazetidine-1-sulfonyl)phenyl]-1-(pyridin-3-ylmethyl)urea], for which the IC50 turned out to be 7860 nM in test [1] (Homo sapiens, A2780, 72 h) and 59 nM in test [2].

With `Cn1ncc2c(S(=O)(=O)c3ccc(NC(=O)NCc4cccnc4)cc3)cccc21` [3-[4-(1-methyl-1H-indazole-4-sulfonyl)phenyl]-1-(pyridin-3-ylmethyl)urea], the IC50 was determined as 59.9 nM in test [1] (Homo sapiens, A2780, 72 h) and 1 nM in test [2].

Regarding `COc1ncccc1NS(=O)(=O)c1ccc(NC(=O)NCc2cccnc2)cc1` [3-{4-[(2-methoxypyridin-3-yl)sulfamoyl]phenyl}-1-(pyridin-3-ylmethyl)urea], the concentration for half-maximal inhibition (IC50) amounted to 114 nM in test [1] (Homo sapiens, A2780, 72 h) and 7 nM in test [2].

`O=C(NCc1cccnc1)Nc1ccc(S(=O)(=O)N2CCOc3ccccc32)cc1` [1-[4-(3,4-dihydro-2H-1,4-benzoxazine-4-sulfonyl)phenyl]-3-(pyridin-3-ylmethyl)urea]: the IC50 in test [1] (Homo sapiens, A2780, 72 h) stood at 459 nM; in test [2] it was 10 nM.

For the compound `Cc1ccc(N2CCN(S(=O)(=O)c3ccc(NC(=O)NCc4cccnc4)cc3)C[C@@H]2C)cc1` [3-{4-[(3S)-3-methyl-4-(4-methylphenyl)piperazine-1-sulfonyl]phenyl}-1-(pyridin-3-ylmethyl)urea], the IC50 is 95 nM in test [1] (Homo sapiens, A2780, 72 h) and 4 nM in test [2].

As for `C[C@H](O)COc1ccccc1NS(=O)(=O)c1ccc(NC(=O)NCc2cccnc2)cc1` [3-[4-({2-[(2S)-2-hydroxypropoxy]phenyl}sulfamoyl)phenyl]-1-(pyridin-3-ylmethyl)urea], the IC50 in test [1] (Homo sapiens, A2780, 72 h) amounted to 88 nM; in test [2], 12 nM.

Turning to `O=C(NCc1cccnc1)Nc1ccc(S(=O)(=O)c2ccc3c(c2)OCO3)cc1` [1-[4-(2H-1,3-benzodioxole-5-sulfonyl)phenyl]-3-(pyridin-3-ylmethyl)urea], the IC50 in test [1] (Homo sapiens, A2780, 72 h) was determined as 322 nM; in test [2] it was 1 nM.

For the compound `Cc1cccc(N2CCN(S(=O)(=O)c3ccc(NC(=O)NCc4cccnc4)cc3)C[C@@H]2C)c1` [3-{4-[(3S)-3-methyl-4-(3-methylphenyl)piperazine-1-sulfonyl]phenyl}-1-(pyridin-3-ylmethyl)urea], the IC50 in test [1] (Homo sapiens, A2780, 72 h) was found to be 34 nM; in test [2], 3 nM.

Regarding `O=C(NCc1cccnc1)Nc1ccc(S(=O)(=O)Nc2ccccc2I)cc1` [3-{4-[(2-iodophenyl)sulfamoyl]phenyl}-1-(pyridin-3-ylmethyl)urea], the IC50 in test [1] (Homo sapiens, A2780, 72 h) came out at 39 nM; in test [2], 0.8 nM.

Take `O=C(NCc1cncnc1)Nc1ccc(S(=O)(=O)N2CCCCC2)cc1` [3-[4-(piperidine-1-sulfonyl)phenyl]-1-(pyrimidin-5-ylmethyl)urea]: the half-maximal inhibitory concentration (IC50) in test [1] (Homo sapiens, A2780, 72 h) was over 30000 nM; in test [2], 1140 nM.

As to `COc1cc(NS(=O)(=O)c2ccc(NC(=O)NCc3cccnc3)cc2)cc(OC)c1` [3-{4-[(3,5-dimethoxyphenyl)sulfamoyl]phenyl}-1-(pyridin-3-ylmethyl)urea], the IC50 in test [1] (Homo sapiens, A2780, 72 h) was found to be 96 nM; in test [2] it was 5 nM.

Turning to `O=C(NCc1cccnc1)Nc1ccc(S(=O)(=O)N2CCN(CC(=O)N3CCCCC3)CC2)cc1` [1-(4-{4-[2-oxo-2-(piperidin-1-yl)ethyl]piperazine-1-sulfonyl}phenyl)-3-(pyridin-3-ylmethyl)urea], the IC50 came out at 21 nM in test [1] (Homo sapiens, A2780, 72 h) and 9 nM in test [2].

For the compound `CCOc1ccccc1S(=O)(=O)c1ccc(NC(=O)NCc2cccnc2)cc1` [3-{4-[(2-ethoxybenzene)sulfonyl]phenyl}-1-(pyridin-3-ylmethyl)urea], the IC50 in test [1] (Homo sapiens, A2780, 72 h) is 0.4 nM; in test [2] it was 2 nM.

`CCOc1ccccc1NS(=O)(=O)c1ccc(NC(=O)NCc2cccnc2)cc1` [3-{4-[(2-ethoxyphenyl)sulfamoyl]phenyl}-1-(pyridin-3-ylmethyl)urea]: the IC50 in test [1] (Homo sapiens, A2780, 72 h) was 32 nM; in test [2], 3 nM.

Turning to `O=C(NCc1ccc2nccn2c1)c1ccc(S(=O)(=O)Nc2cccc(OC(F)(F)F)c2)cc1` [N-{imidazo[1,2-a]pyridin-6-ylmethyl}-4-{[3-(trifluoromethoxy)phenyl]sulfamoyl}benzamide], the 50% inhibitory concentration (IC50) in test [1] (Homo sapiens, A2780, 72 h) was determined as 8.58 nM; in test [2], 467 nM.

In the case of `CC[C@H]1CCCCN1S(=O)(=O)c1ccc(NC(=O)NCc2cccnc2)cc1` [3-{4-[(2S)-2-ethylpiperidine-1-sulfonyl]phenyl}-1-(pyridin-3-ylmethyl)urea], the IC50 in test [1] (Homo sapiens, A2780, 72 h) was determined as 18 nM; in test [2] it was 4 nM.
